According to patent US9226904B2, “Pharmacological treatment of Parkinson's disease” (The United States of America as Represented by the …, priority 2006, dated 2016):

Experiments:
[1] = tested on: hemi-lesioned 6-OHDA-treated rat; assay: Rotational activity (contralateral turns) in hemi-lesioned 6-OHDA-treated rat model of Parkinson's disease; assay type: in vivo; conditions: for contralateral turning after D1 agonist SKF 38393 (0.1 mg/kg) on test day: 14 days R(+)-8-OHDPAT 0.3 mg/kg or vehicle, then same plus SKF 38393 0.1 mg/kg on test day, observed 3 hr, FIG. 2, p<0.005
Description: Rats were rendered parkinsonian on one side of the brain by unilateral destruction of nigrostriatal dopamine neurons using the selective neurotoxin 6-OHDA and stereotaxic procedures. Animals were allowed to recover for at least 2 weeks following this procedure. Animals were then screened for efficacy of the lesion by subcutaneous injection of L-DOPA (25 mg/kg) plus the decarboxylase inhibitor benserazide (6.25 mg/kg) followed by assessment of motor activity.
Anti-parkinsonian action in the hemi-lesioned 6-OHDA-treated rat model was assessed by the elicitation of rotational activity to the side opposite the lesioned hemisphere (contralateral turns) following drug treatment. The number of contralateral turns was assessed by videotape recording of animals and counting the number of turns.
One group (controls) received a daily subcutaneous injection of vehicle (0.9% saline containing 0.1 mg/kg ascorbate; 1 ml/kg) for 14 days and the other group (8-OHDPAT) received a daily subcutaneous injection of R(+)-8-OHDPAT (0.3 mg/kg in 1 ml/kg volume) for 14 days. Beginning on day 15, both groups of rats were tested for motor activity and dyskinetic activity in response to the D1 receptor partial agonist SKF 38393 or the D2 receptor agonist quinpirole. Such testing was carried out in a randomized fashion with different doses of dopamine agonist being tested every 4th day (e.g. 3 days between dopamine agonist administration). Throughout this testing phase the control group continued to receive daily injection of vehicle and the 8-OHDPAT group continued to receive daily injection of 0.3 mg/kg R(+)-8-OHDPAT. On days when dopamine agonists were tested the vehicle or R(+)-8-OHDPAT was administered simultaneously with the dopamine agonist.

ΔFosB = assay: Immunoblot of ΔFosB in denervated striatum of unilateral 6-OHDA-lesioned rats; assay type: in vivo, rat; conditions: once daily for 15 days; L-DOPA 25 mg/kg plus 6.25 mg/kg benserazide; SKF 38393 1 mg/kg; R(+)-8-OHDPAT 0.3 mg/kg concomitant with SKF 38393; FIG. 9; p<0.05
Description: To test whether a drug-related rise in ΔFosB contributes to dyskinesias elicited by repeated L-DOPA treatment, ΔFosB levels were assessed by immunoblotting. FIG. 8 provides an image of a typical blot. […] Thus a significant target of the treatments of the present invention is contemplated to be ΔFosB in the striatum. Even so, knowledge of the mechanism(s) is not necessary in order to make and use the present invention.

[2] = tested on: hemi-lesioned 6-OHDA-treated rat; assay: Rotational activity (contralateral turns) in hemi-lesioned 6-OHDA-treated rat model of Parkinson's disease; assay type: in vivo; conditions: for rotational response on day 15 of once daily administration: SKF 38393 0.1, 0.3 or 1.0 mg/kg with vehicle or with R(+)-8-OHDPAT 0.3 mg/kg, once daily 15 days, FIG. 10; for direction of turning elicited: daily s.c. dosing, R(+)-8-OHDPAT 0.3 mg/kg
[3] = coadministration with levodopa; Bibbiani et al., Neurology 2001; cited from earlier work
[4] = tested on: hemi-lesioned 6-OHDA-treated rat; assay: Observer assessment of motor dyskinesias (dyskinesia index) during rotational test; assay type: in vivo; conditions: repeated R(+)-8-OHDPAT administration, 3 hr rotational test
Description: Observer assessment of motor dyskinesias was carried out be viewing the videotaped recording of rats during testing for rotational activity. A dyskinesia score was generated at 10 minute intervals throughout the course of the rotational test (generally 3 hr). Dyskinesia scores were based on the following scale: 0-no evidence of abnormal activity; 1 mild, intermittent forelimb dyskinesia; 2-severe, more persistent forelimb dyskinesia associated with animal directing activity toward forelimb; 3-severe limb and axial dyskinesia associated with loss of balance and consistent “barrel-rolling” activity. The dyskinesia scores that were obtained were averaged to generate a dyskinesia index.
The experiments described in this example were conducted as described above. A dyskinesia index for each animal was determined during a 3 hr rotational test.

[5] = L-DOPA 10 mg/kg + 6.25 mg/kg benserazide, FIG. 1

| SMILES | contralateral turning after D1 agonist SKF 38393 (0.1 mg/kg) on test day [1] | ΔFosB in the denervated striatum (ΔFosB) | rotational response on day 15 of once daily administration [2] | direction of turning elicited [2, 5] | other results |
| --- | --- | --- | --- | --- | --- |
| Oc1cc2c(cc1O)C(c1ccccc1)CNCC2 (stereo not drawn) [SKF 38393] | no contralateral turning | significant increase | little net contralateral turning | – | – |
| N[C@@H](Cc1ccc(O)c(O)c1)C(=O)O [L-DOPA, levodopa] | – | significant increase | – | almost exclusively contralateral turning | contralateral turning on Day 15 relative to Day 1 ([2]; repeated daily s.c. dosing, L-DOPA 10 mg/kg + 6.25 mg/kg benserazide, R(+)-8-OHDPAT 0.3 mg/kg where given, FIG. 1): approximately 3 fold; coordination of the turning response (observed, not quantified) ([2]; upon repeated daily administration, L-DOPA 10 mg/kg + benserazide, R(+)-8-OHDPAT 0.3 mg/kg where given): progressively more uncoordinated |
| COc1ccccc1N1CCN(CCN(C(=O)C2CCCCC2)c2ccccn2)CC1 [WAY 100635] | – | – | – | – | effect of 5-HT1A antagonist pretreatment on R(+)-8-OHDPAT-facilitated anti-parkinsonian action of SKF 38393 ([1]; WAY 100635 0.1 mg/kg on test day prior to R(+)-8-OHDPAT 0.3 mg/kg plus SKF 38393 0.3 mg/kg, at least 14 days daily R(+)-8-OHDPAT, FIG. 7): blocked the facilitating effects |
| Fc1ccc(-c2cncc(CNC[C@H]3CCc4ccccc4O3)c2)cc1 [sarizotan] | – | – | – | – | motor complications of levodopa treatment [3]: reduced motor complications |
| CCCN(CCC)C1CCc2cccc(O)c2C1 (stereo not drawn) [R(+)-8-OHDPAT, 8-hydroxy-2-(di-n-propylamino)tetralin] | pronounced contralateral turning | prevents the D1 agonist-induced rise in ΔFosB | significantly greater contralateral turning response | ipsilateral turning could be elicited | anti-parkinsonian action (contralateral turning), chronic and concomitant versus acute administration ([1]; 14 day pretreatment with R(+)-8-OHDPAT 0.3 mg/kg plus concomitant R(+)-8-OHDPAT+SKF 38393 0.3 mg/kg on test day, FIG. 4, p<0.001): significant anti-parkinsonian action greater than all other treatment groups; contralateral turning after D2 agonist quinpirole (0.05 mg/kg) on test day ([1]; 14 days R(+)-8-OHDPAT 0.3 mg/kg, then R(+)-8-OHDPAT plus quinpirole 0.05 mg/kg on test day, vs vehicle plus quinpirole, 3 hr, FIG. 3, p<0.001): significantly greater contralateral turning; dyskinetic behavior (dyskinesia index) elicited by SKF 38393 (3.0 mg/kg) ([4]; FIG. 5): reduced dyskinetic behavior; dyskinetic behavior (dyskinesia index) elicited by quinpirole (0.05 mg/kg) ([4]; FIG. 6): reduced dyskinetic behavior; rotational response, pre-screened (primed) versus non-pre-screened (unprimed) rats ([2]; 15 days once daily R(+)-8-OHDPAT 0.3 mg/kg plus SKF 38393 0.3 mg/kg, FIG. 11): no significant difference |
